Test results published in patent US11007274B2, “Compounds for medicinal applications” (Ausvir Therapeutics Pty LTD, priority 2015, dated 2021).
≈ marks a conversion by molar mass, not a printed value. Where “and” joins values, the source holds several entries; their conditions need not be identical. Equal values may be shown once. Read-outs that look alike come from different tables or passages of the source.

Assays:
[1] = system: CA/07/2009; assay: microbe, parasite or virus in culture; format: cell-based; conditions: unidentified influenza virus, Table 7
[2] = system: Perth/16/2009; assay: microbe, parasite or virus in culture; format: cell-based; conditions: unidentified influenza virus; Table 7
[3] = system: Florida/4/2006; assay: microbe, parasite or virus in culture; format: cell-based; conditions: unidentified influenza virus; Table 7
[4] = system: A/Mississippi/03/01H274Y; format: cell-based, influenza virus
[5] = system: Influenza A virus H5N1, Hong Kong/213/2003; assay: microbe, parasite or virus in culture; format: cell-based; conditions: Influenza A virus, H5N1
[6] = system: Influenza A virus H5N1, Hong Kong/213/2003; assay: microbe, parasite or virus in culture; format: cell-based; conditions: Influenza A virus, H5N1; remark: listed apart in the source
[7] = system: Influenza A virus H3N2, Perth/16/2009; assay: microbe, parasite or virus in culture; format: cell-based
[8] = system: Influenza A virus H3N2, Perth/16/2009; assay: microbe, parasite or virus in culture; format: cell-based; conditions: Table 11, Neutral Red, read-out: EC50
[9] = system: Influenza A virus H1N1, California/07/2009; assay: microbe, parasite or virus in culture; format: cell-based
[10] = system: Influenza A virus H1N1, California/07/2009; assay: microbe, parasite or virus in culture; format: cell-based; conditions: Table 13, Neutral Red, read-out: EC50
[11] = system: Influenza A virus H5N1, Duck/MN/1525/81; assay: microbe, parasite or virus in culture; format: cell-based
[12] = system: Influenza B virus, B/Brisbane/60/2008; assay: microbe, parasite or virus in culture; format: cell-based
[13] = system: Influenza B virus, B/Brisbane/60/2008; assay: microbe, parasite or virus in culture; format: cell-based; conditions: Table 18, Neutral Red
[14] = system: Influenza B virus, B/Florida/4/2006; assay: microbe, parasite or virus in culture; format: cell-based
[15] = system: Influenza B virus, B/Florida/4/2006; assay: microbe, parasite or virus in culture; format: cell-based; conditions: Table 19, Neutral Red (Cytopathic effect/Toxicity), B/Florida/4/2006, read-out: EC50
[16] = system: CA/07/2009 virus H1N1; assay: Viral Plaque Reduction Assay (Table 22); format: cell-based; conditions: Influenza A virus
[17] = system: A/PR/8 virus H1N1; assay: Viral Plaque Reduction Assay (Table 23); format: cell-based, influenza virus; conditions: Influenza A virus
[18] = biological target: hERG (Homo sapiens, UniProt Q12809)
[19] = system: kinases; assay: KINOME scan profiling (Table 41)

Sequence of hERG (Q12809 whole entry): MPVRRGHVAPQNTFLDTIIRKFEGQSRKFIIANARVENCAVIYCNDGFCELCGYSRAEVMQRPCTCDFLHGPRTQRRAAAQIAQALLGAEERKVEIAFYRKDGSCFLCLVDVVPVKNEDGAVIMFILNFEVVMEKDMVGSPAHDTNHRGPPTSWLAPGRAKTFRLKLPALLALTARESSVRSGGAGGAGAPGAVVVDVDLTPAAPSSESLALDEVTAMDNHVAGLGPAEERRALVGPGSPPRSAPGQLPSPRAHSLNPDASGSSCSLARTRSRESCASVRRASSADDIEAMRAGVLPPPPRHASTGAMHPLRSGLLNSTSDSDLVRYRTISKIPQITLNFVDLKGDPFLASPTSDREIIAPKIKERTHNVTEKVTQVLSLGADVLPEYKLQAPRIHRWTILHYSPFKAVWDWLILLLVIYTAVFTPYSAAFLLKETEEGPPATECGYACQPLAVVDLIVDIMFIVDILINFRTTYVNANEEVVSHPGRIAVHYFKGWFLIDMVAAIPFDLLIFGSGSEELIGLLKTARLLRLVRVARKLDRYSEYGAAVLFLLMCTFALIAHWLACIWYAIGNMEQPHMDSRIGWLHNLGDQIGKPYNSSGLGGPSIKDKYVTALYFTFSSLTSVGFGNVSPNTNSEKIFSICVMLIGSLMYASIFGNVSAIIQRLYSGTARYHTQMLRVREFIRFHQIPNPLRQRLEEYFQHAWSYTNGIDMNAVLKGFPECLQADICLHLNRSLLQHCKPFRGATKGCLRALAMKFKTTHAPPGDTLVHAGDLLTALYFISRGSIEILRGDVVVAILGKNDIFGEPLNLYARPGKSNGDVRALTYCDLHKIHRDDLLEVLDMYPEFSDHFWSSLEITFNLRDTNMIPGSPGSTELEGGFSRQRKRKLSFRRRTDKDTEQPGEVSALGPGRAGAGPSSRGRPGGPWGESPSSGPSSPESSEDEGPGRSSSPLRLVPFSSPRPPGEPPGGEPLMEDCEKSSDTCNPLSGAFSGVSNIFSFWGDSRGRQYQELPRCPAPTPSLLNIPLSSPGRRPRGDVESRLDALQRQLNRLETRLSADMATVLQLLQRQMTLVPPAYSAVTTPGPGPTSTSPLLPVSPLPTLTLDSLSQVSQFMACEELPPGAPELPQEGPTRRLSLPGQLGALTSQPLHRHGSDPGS

## CC(=O)N[C@H]1[C@H]([C@H](OC(=O)NCCCCCCCCCNC(=O)c2cc(C(=O)NCCCCCCCCCNC(=O)O[C@@H]([C@@H]3OC(C(=O)O)=C[C@H](NC(=N)N)[C@H]3NC(C)=O)[C@H](O)CO)c(C(=O)N[C@H](CC(=O)NCS(=O)(=O)O)C(=O)NCS(=O)(=O)O)cc2C(=O)N[C@H](CC(=O)NCS(=O)(=O)O)C(=O)NCS(=O)(=O)O)[C@H](O)CO)OC(C(=O)O)=C[C@@H]1NC(=N)N [MD185, PK2PYR(Zn)2[(D-Asp)(NHCH2SO3)2]2]
[1]
  EC50: 3.2 nM
[1]; MDCK cell line
  EC50: 6 ng/mL
[2]
  EC50: < 0.00013 µg/mL and < 0.07 nM
[3]
  EC50: < 0.00013 µg/mL and < 0.07 nM
[4]
  EC50: 0.89 nM
[5]
  EC90: < 0.32 ng/mL
[6]
  EC50: < 0.32 ng/mL
[7]
  EC90: 0.86 ng/mL (≈ 0.464 nM)
[8]
  EC50: 0.1 ng/mL (≈ 0.0539 nM)
[9]
  EC90: 0.26 ng/mL (≈ 0.14 nM)
[10]
  EC50: 0.15 ng/mL (≈ 0.0809 nM)
[11]
  EC90: 1.53 ng/mL (≈ 0.825 nM)
[12]
  EC50: 6 ng/mL (≈ 3.24 nM)
[13]
  EC50: 6.2 ng/mL (≈ 3.34 nM)
[14]
  EC50: 6 ng/mL (≈ 3.24 nM)
[15]
  EC50: 6.2 ng/mL (≈ 3.34 nM)
[16]
  EC50: 9.5e-05 µg/mL and 0.0514 nM
[17]
  EC50: 4.26 nM
[18]
  hERG IC50: not calculable
[19]
  Number of Hits: 0
